Assay results published in patent publication US12673936B2, “Isoindolinone compounds, and uses thereof” (HANGZHOU GLUBIO PHARMACEUTICAL CO., LTD., priority 2021, dated 2026).

Experiments:
HiBiT tagged CK1α = HiBiT tagged CK1α (Homo sapiens, UniProt P48729+Q96SW2); assay: CK1α degradation assay (HiBiT assay); format: cell-based; conditions: 20 hours; for Dmax: HT-1080, HT-1080 cells; for Dmax / HiBiT CK1α: Dmax: maximum CK1α degradation; for DC50 / HiBiT CK1α: Dmax: HT-1080 cells; for DC50: concentration at 50% CK1α degradation
Method: (§1) CK1α and GSPT1 Degradation Assay (HiBiT Assay) The following is an example of an assay that can be used to determine the dose-dependent CK1α and GSPT1 degradation activities of test compounds in a human cell line such as HT-1080 ([…]). HT-1080 cells stably overexpressing wild-type CRBN, GSPT1A(1-138)/G575N mutant and HiBiT tagged CK1α or GSPT1 were seeded into 384-well plates (Cat #3764, Corning) pre-spotted with DMSO or test compounds. Increasing concentrations of test compounds (ranging from 3.162×10^-4 μM to 10 μM at a 3.16-fold increment) or DMSO were dispensed into an empty 384-well plate using an Echo Acoustic Liquid Handler (Beckman Coulter). About 10,000 cells in complete DMEM cell culture media were seeded per well. […] Luminescence was then measured with an EnVision plate reader (PerkinElmer) or a PHERAstar plate reader (BMG Labtech). All CK1α or GSPT1 degradation curves were processed using Collaborative Drug Discovery Vault softwares (Burlingame, CA., www.collaborativedrug.com). CK1α or GSPT1 levels in compound-treated wells were normalized to that of DMSO control and expressed as Percent of Control (PoC, y). […]

HiBiT tagged GSPT1 = HiBiT tagged GSPT1 (Homo sapiens, UniProt P15170+Q96SW2); assay: GSPT1 degradation assay (HiBiT assay); format: cell-based; conditions: 20 hours, maximum GSPT1 degradation; for Dmax: HT-1080, HT-1080 cells; for HiBiT GSPT1: Dmax: HT-1080 cells
Method: as §1

Chain of HiBiT tagged GSPT1 (P15170 whole entry): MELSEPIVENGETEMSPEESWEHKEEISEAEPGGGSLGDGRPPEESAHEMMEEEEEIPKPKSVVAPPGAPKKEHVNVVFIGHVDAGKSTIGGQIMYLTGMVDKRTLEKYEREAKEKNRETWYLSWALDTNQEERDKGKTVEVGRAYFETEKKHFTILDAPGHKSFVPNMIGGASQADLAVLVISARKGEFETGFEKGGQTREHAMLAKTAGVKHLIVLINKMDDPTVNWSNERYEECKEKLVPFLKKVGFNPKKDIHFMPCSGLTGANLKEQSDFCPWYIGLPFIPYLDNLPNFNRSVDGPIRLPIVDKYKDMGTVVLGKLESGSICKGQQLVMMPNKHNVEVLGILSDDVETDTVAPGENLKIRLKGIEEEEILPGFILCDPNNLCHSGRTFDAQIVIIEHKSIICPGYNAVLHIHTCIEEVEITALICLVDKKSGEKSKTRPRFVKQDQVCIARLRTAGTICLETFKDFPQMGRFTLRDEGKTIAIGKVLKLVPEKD
Chain of HiBiT tagged GSPT1 (Q96SW2 whole entry): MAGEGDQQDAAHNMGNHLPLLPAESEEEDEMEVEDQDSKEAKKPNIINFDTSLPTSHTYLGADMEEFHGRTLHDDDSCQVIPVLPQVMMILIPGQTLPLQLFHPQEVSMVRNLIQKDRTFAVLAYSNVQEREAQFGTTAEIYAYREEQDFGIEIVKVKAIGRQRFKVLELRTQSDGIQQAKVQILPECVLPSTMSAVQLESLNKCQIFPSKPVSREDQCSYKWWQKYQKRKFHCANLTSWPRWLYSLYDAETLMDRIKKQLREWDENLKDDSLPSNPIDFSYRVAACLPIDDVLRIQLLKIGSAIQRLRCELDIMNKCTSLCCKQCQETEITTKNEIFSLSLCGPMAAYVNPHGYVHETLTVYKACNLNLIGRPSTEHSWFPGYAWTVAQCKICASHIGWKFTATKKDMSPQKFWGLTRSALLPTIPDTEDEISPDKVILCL
Chain of HiBiT tagged GSPT1 (Q16531 whole entry partner): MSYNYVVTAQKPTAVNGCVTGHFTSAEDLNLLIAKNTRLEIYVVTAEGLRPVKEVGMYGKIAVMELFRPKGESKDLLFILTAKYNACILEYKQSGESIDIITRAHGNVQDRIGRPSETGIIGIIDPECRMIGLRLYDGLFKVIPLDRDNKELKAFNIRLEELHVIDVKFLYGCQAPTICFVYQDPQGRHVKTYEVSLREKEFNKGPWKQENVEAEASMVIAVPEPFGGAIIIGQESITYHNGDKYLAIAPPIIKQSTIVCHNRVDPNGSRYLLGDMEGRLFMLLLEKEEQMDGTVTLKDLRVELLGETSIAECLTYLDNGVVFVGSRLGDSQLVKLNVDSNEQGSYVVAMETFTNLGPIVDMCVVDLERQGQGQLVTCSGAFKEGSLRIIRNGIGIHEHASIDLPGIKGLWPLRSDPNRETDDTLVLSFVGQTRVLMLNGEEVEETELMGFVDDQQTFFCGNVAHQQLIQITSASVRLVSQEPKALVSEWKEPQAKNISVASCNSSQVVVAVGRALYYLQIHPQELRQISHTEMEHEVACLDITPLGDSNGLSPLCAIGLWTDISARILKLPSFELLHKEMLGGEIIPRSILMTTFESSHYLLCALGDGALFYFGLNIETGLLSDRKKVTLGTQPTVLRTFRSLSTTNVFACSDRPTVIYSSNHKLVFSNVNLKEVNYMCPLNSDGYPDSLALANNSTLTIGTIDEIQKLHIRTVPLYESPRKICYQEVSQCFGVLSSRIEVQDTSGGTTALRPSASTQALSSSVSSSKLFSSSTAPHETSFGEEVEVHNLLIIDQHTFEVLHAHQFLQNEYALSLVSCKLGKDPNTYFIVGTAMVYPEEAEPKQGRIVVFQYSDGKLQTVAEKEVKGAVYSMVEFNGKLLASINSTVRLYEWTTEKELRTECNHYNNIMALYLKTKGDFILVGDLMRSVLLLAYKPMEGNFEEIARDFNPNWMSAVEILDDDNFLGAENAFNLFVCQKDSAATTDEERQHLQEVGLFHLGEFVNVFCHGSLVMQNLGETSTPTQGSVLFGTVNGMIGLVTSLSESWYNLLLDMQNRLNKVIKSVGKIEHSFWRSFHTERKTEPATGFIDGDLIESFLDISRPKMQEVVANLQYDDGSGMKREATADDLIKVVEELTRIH
Chain of HiBiT tagged CK1α (P48729 whole entry): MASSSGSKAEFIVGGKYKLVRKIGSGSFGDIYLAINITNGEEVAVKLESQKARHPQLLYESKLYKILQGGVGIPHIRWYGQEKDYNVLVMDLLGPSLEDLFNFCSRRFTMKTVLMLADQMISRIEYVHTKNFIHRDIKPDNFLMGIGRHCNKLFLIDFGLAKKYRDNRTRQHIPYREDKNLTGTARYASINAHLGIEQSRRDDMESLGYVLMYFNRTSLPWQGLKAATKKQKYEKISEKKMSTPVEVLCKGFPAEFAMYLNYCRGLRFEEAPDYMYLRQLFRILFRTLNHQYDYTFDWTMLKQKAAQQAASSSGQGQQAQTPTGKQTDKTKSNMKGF
Chain of HiBiT tagged CK1α (Q96SW2 whole entry): as the sequence (Q96SW2 whole entry) above
Chain of HiBiT tagged CK1α (Q16531 whole entry partner): as the sequence (Q16531 whole entry partner) above

O=C1CCC(N2Cc3cc(C(=O)N[C@@H](c4cccc(Cl)c4)C4CCC4)ccc3C2=O)C(=O)N1 (stereo in doubt) [Compound 68, N-((3-chlorophenyl)(cyclobutyl)methyl)-2-(2,6-dioxopiperidin-3-yl)-1-oxoisoindoline-5-carboxamide]
Dmax (HiBiT tagged CK1α): 55.4%
DC50 (HiBiT tagged CK1α): 789 nM
Dmax (HiBiT tagged GSPT1): 48.3%

COc1cccc([C@@H](NC(=O)c2ccc3c(c2)CN(C2CCC(=O)NC2=O)C3=O)C2CC2)c1 (stereo in doubt) [Compound 32, N-((*S)-cyclopropyl(3-methoxyphenyl)methyl)-2-(2,6-dioxopiperidin-3-yl)-1-oxoisoindoline-5-carboxamide]
Dmax (HiBiT tagged CK1α): 59.3%
DC50 (HiBiT tagged CK1α): 198 nM
Dmax (HiBiT tagged GSPT1): 36.3%

O=C1CCC(N2Cc3cc(C(=O)N[C@H](c4ncccc4Cl)C4CCC4)ccc3C2=O)C(=O)N1 (stereo in doubt) [Compound 18, N-((*S)-(3-chloropyridin-2-yl)(cyclobutyl)methyl)-2-(2,6-dioxopiperidin-3-yl)-1-oxoisoindoline-5-carboxamide]
Dmax (HiBiT tagged CK1α): 66%
DC50 (HiBiT tagged CK1α): 137 nM
Dmax (HiBiT tagged GSPT1): 58.5%

O=C1CC[C@@H](N2Cc3cc(C(=O)N[C@H](c4ccc(Cl)cc4F)C4CCC4)ccc3C2=O)C(=O)N1 (racemic) [Compound 54, N-((*S)-(4-chloro-2-fluorophenyl)(cyclobutyl)methyl)-2-((*R)-2,6-dioxopiperidin-3-yl)-1-oxoisoindoline-5-carboxamide]
Dmax (HiBiT tagged CK1α): 56.5%
DC50 (HiBiT tagged CK1α): 1110 nM
HiBiT GSPT1: Dmax (HiBiT tagged GSPT1): 47.9%

O=C1CCC(N2Cc3cc(C(=O)N[C@H](c4c(F)cccc4F)C4CC4)ccc3C2=O)C(=O)N1 (stereo in doubt) [Compound 17, N-((*S)-cyclopropyl(2,6-difluorophenyl)methyl)-2-(2,6-dioxopiperidin-3-yl)-1-oxoisoindoline-5-carboxamide]
Dmax (HiBiT tagged CK1α): 68.1%
DC50 (HiBiT tagged CK1α): 123 nM
Dmax (HiBiT tagged GSPT1): 49.3%

O=C1CCC(N2Cc3cc(C(=O)N[C@H](c4c(F)cccc4Cl)C4CCC4)ccc3C2=O)C(=O)N1 (stereo in doubt) [Compound 69, N-((*S)-(2-chloro-6-fluorophenyl)(cyclobutyl)methyl)-2-(2,6-dioxopiperidin-3-yl)-1-oxoisoindoline-5-carboxamide]
DC50 (HiBiT tagged CK1α): 62.7 nM
HiBiT CK1α: Dmax (HiBiT tagged CK1α): 74%
HiBiT GSPT1: Dmax (HiBiT tagged GSPT1): 26%

O=C1CCC(N2Cc3cc(C(=O)N[C@H](c4ccc(F)cc4Cl)C4CC4)ccc3C2=O)C(=O)N1 (stereo in doubt) [Compound 13, N-((*S)-(2-chloro-4-fluorophenyl)(cyclopropyl)-yl)methyl)-2-(2,6-dioxopiperidin-3-yl)-1-oxoisoindoline-5-carboxamide]
Dmax (HiBiT tagged CK1α): 65.9%
DC50 (HiBiT tagged CK1α): 293 nM
Dmax (HiBiT tagged GSPT1): 37%

O=C1CCC(N2Cc3cc(C(=O)NC(c4ccc(F)cc4F)C4CC4)ccc3C2=O)C(=O)N1 (stereo not drawn) [Compound 1, N-(cyclopropyl(2,4-difluorophenyl)methyl)-2-(2,6-dioxopiperidin-3-yl)-1-oxoisoindoline-5-carboxamide]
Dmax (HiBiT tagged CK1α): 66.2%
DC50 (HiBiT tagged CK1α): 221 nM
Dmax (HiBiT tagged GSPT1): 37%

O=C1CCC(N2Cc3cc(C(=O)N[C@@H](c4cccc(C(F)(F)F)c4)C4CC4)ccc3C2=O)C(=O)N1 (stereo in doubt) [Compound 33, N-((*R)-cyclopropyl(3-(trifluoromethyl)phenyl)methyl)-2-(2,6-dioxopiperidin-3-yl)-1-oxoisoindoline-5-carboxamide]
Dmax (HiBiT tagged CK1α): 56.3%
DC50 (HiBiT tagged CK1α): 1300 nM
Dmax (HiBiT tagged GSPT1): 66.3%

O=C1CCC(N2Cc3cc(C(=O)N[C@@H](c4cccc(Cl)c4)C4CC4)ccc3C2=O)C(=O)N1 (stereo in doubt) [Compound 27, N-((*R)-(3-chlorophenyl)(cyclopropyl)methyl)-2-(2,6-dioxopiperidin-3-yl)-1-oxoisoindoline-5-carboxamide]
Dmax (HiBiT tagged CK1α): 59.3%
DC50 (HiBiT tagged CK1α): 345 nM
Dmax (HiBiT tagged GSPT1): 40.3%

O=C1CCC(N2Cc3cc(C(=O)N[C@H](c4ncc(F)cc4Cl)C4CC4)ccc3C2=O)C(=O)N1 (stereo in doubt) [Compound 71, N-((*S)-(3-chloro-5-fluoropyridin-2-yl)(cyclopropyl)methyl)-2-(2,6-dioxopiperidin-3-yl)-1-oxoisoindoline-5-carboxamide]
Dmax (HiBiT tagged CK1α): 61.7%
DC50 (HiBiT tagged CK1α): 455 nM
Dmax (HiBiT tagged GSPT1): 19.1%

O=C1CC[C@H](N2Cc3cc(C(=O)N[C@H](c4ccc(F)cc4Cl)C4CCC4)ccc3C2=O)C(=O)N1 (racemic) [Compound 51, N-((*S)-(2-chloro-4-fluorophenyl)(cyclobutyl)methyl)-2-((*S)-2,6-dioxopiperidin-3-yl)-1-oxoisoindoline-5-carboxamide]
Dmax (HiBiT tagged CK1α): 62.3%
DC50 (HiBiT tagged CK1α): 142 nM
Dmax (HiBiT tagged GSPT1): 46%

O=C1CCC(N2Cc3cc(C(=O)N[C@@H](c4ccc(F)cc4)C4COC4)ccc3C2=O)C(=O)N1 (stereo in doubt) [Compound 59, 2-(2,6-dioxopiperidin-3-yl)-N-((*R)-(4-fluorophenyl)(oxetan-3-yl)methyl)-1-oxoisoindoline-5-carboxamide]
Dmax (HiBiT tagged CK1α): 32.2%
Dmax (HiBiT tagged GSPT1): 7.93%

O=C1CCC(N2Cc3cc(C(=O)N[C@H](c4ccc(F)cc4)C4CCCC4)ccc3C2=O)C(=O)N1 (mixture of isomers) [Compound 61, N-((*S)-cyclopentyl(4-fluorophenyl)methyl)-2-((R)-2,6-dioxopiperidin-3-yl)-1-oxoisoindoline-5-carboxamide]
Dmax (HiBiT tagged CK1α): 49.5%
Dmax (HiBiT tagged GSPT1): 29.3%

O=C1CCC(N2Cc3cc(C(=O)N[C@H](c4ccc(F)cc4)C4COC4)ccc3C2=O)C(=O)N1 (stereo in doubt) [Compound 58, 2-(2,6-dioxo-3-piperidyl)-N-[(*S)-(4-fluorophenyl)-(oxetan-3-yl)methyl]-1-oxo-isoindoline-5-carboxamide]
Dmax (HiBiT tagged CK1α): 49.7%
Dmax (HiBiT tagged GSPT1): 16.5%

O=C1CCC(N2Cc3cc(C(=O)N[C@@H](c4ccc(F)cc4Cl)C4CC4)ccc3C2=O)C(=O)N1 (stereo in doubt) [Compound 74, N-((*R)-(2-chloro-4-fluorophenyl)(cyclopropyl)methyl)-2-(2,6-dioxopiperidin-3-yl)-1-oxoisoindoline-5-carboxamide]
Dmax (HiBiT tagged CK1α): 59.2%
DC50 (HiBiT tagged CK1α): 233 nM
Dmax (HiBiT tagged GSPT1): 62.3%

O=C1CC[C@H](N2Cc3cc(C(=O)N[C@H](c4ccc(F)cc4)C4CCCC4)ccc3C2=O)C(=O)N1 (racemic) [Compound 63, N-((*S)-cyclopentyl(4-fluorophenyl)methyl)-2-((S)-2,6-dioxopiperidin-3-yl)-1-oxoisoindoline-5-carboxamide]
DC50 (HiBiT tagged CK1α): 53.5 nM
HiBiT CK1α: Dmax (HiBiT tagged CK1α): 72.2%
HiBiT GSPT1: Dmax (HiBiT tagged GSPT1): 29%

O=C1CCC(N2Cc3cc(C(=O)N[C@H](c4ccc(F)cc4)C4CC4)ccc3C2=O)C(=O)N1 (stereo in doubt) [Compound 10, N-((*S)-cyclopropyl(4-fluorophenyl)methyl)-2-(2,6-dioxopiperidin-3-yl)-1-oxoisoindoline-5-carboxamide]
Dmax (HiBiT tagged CK1α): 60.8%
DC50 (HiBiT tagged CK1α): 706 nM
Dmax (HiBiT tagged GSPT1): 36%

N#Cc1ccccc1[C@@H](NC(=O)c1ccc2c(c1)CN(C1CCC(=O)NC1=O)C2=O)C1CC1 (stereo in doubt) [Compound 64, N-((*S)-(2-cyanophenyl)(cyclopropyl)methyl)-2-(2,6-dioxopiperidin-3-yl)-1-oxoisoindoline-5-carboxamide]
Dmax (HiBiT tagged CK1α): 66.7%
DC50 (HiBiT tagged CK1α): 162 nM
Dmax (HiBiT tagged GSPT1): 27.9%

O=C1CCC(N2Cc3cc(C(=O)N[C@H](c4ccccc4Cl)C4CC4)ccc3C2=O)C(=O)N1 (stereo in doubt) [Compound 12, N-((*S)-(2-chlorophenyl)(cyclopropyl)methyl)-2-(2,6-dioxopiperidin-3-yl)-1-oxoisoindoline-5-carboxamide]
Dmax (HiBiT tagged CK1α): 64.7%
DC50 (HiBiT tagged CK1α): 140 nM
Dmax (HiBiT tagged GSPT1): 36.8%

O=C1CC[C@H](N2Cc3cc(C(=O)N[C@H](c4ccc(F)cc4)C4CCCC4)ccc3C2=O)C(=O)N1 (racemic) [Compound 60, N-((*R)-cyclopentyl(4-fluorophenyl)methyl)-2-((S)-2,6-dioxopiperidin-3-yl)-1-oxoisoindoline-5-carboxamide]
DC50 (HiBiT tagged CK1α): < 47.1 nM
HiBiT CK1α: Dmax (HiBiT tagged CK1α): 49%
Dmax (HiBiT tagged GSPT1): 27.4%

O=C1CCC(N2Cc3cc(C(=O)NC(c4ccc(F)c(F)c4)C4CCC4)ccc3C2=O)C(=O)N1 (single isomer, unassigned) [Compound 47, N-((*R)-cyclobutyl(3,4-difluorophenyl)methyl)-2-((*R)-2,6-dioxopiperidin-3-yl)-1-oxoisoindoline-5-carboxamide]
Dmax (HiBiT tagged CK1α): 56.1%
DC50 (HiBiT tagged CK1α): 2960 nM
Dmax (HiBiT tagged GSPT1): 29.7%

O=C1CCC(N2Cc3cc(C(=O)N[C@H](c4ccc(F)cc4)C4CCOCC4)ccc3C2=O)C(=O)N1 (stereo in doubt) [Compound 38, 2-(2,6-dioxopiperidin-3-yl)-N-((*S)-(4-fluorophenyl)(tetrahydro-2H-pyran-4-yl)methyl)-1-oxoisoindoline-5-carboxamide]
Dmax (HiBiT tagged CK1α): 64.1%
DC50 (HiBiT tagged CK1α): 218 nM
Dmax (HiBiT tagged GSPT1): 19.9%

O=C1CCC(N2Cc3cc(C(=O)NC(c4c(F)cccc4Cl)C4CC4)ccc3C2=O)C(=O)N1 (stereo not drawn) [Compound 45, N-((2-chloro-6-fluorophenyl)(cyclopropyl)methyl)-2-(2,6-dioxopiperidin-3-yl)-1-oxoisoindoline-5-carboxamide]
Dmax (HiBiT tagged CK1α): 73.8%
DC50 (HiBiT tagged CK1α): 57.8 nM
Dmax (HiBiT tagged GSPT1): 42.4%
